Legend:
[1] = target: T1, Transient receptor potential cation channel subfamily V member 1 (Rattus norvegicus, UniProt O35433); assay: Displacement of [3H]RTX from rat TRPV1 expressed in CHO cells; format: cell-based
[2] = target: Transient receptor potential cation channel subfamily V member 1 (Rattus norvegicus) (UniProt O35433); assay: (§1) Antagonist activity at rat TRPV1 expressed in CHO cells assessed as inhibition of calcium uptake; format: functional, cell-based; parameters: concentration or dose not given beside the values; settings: concentration not given here
Transient receptor potential cation channel subfamily V member 1 (Rattus norvegicus), sequence (O35433 whole entry): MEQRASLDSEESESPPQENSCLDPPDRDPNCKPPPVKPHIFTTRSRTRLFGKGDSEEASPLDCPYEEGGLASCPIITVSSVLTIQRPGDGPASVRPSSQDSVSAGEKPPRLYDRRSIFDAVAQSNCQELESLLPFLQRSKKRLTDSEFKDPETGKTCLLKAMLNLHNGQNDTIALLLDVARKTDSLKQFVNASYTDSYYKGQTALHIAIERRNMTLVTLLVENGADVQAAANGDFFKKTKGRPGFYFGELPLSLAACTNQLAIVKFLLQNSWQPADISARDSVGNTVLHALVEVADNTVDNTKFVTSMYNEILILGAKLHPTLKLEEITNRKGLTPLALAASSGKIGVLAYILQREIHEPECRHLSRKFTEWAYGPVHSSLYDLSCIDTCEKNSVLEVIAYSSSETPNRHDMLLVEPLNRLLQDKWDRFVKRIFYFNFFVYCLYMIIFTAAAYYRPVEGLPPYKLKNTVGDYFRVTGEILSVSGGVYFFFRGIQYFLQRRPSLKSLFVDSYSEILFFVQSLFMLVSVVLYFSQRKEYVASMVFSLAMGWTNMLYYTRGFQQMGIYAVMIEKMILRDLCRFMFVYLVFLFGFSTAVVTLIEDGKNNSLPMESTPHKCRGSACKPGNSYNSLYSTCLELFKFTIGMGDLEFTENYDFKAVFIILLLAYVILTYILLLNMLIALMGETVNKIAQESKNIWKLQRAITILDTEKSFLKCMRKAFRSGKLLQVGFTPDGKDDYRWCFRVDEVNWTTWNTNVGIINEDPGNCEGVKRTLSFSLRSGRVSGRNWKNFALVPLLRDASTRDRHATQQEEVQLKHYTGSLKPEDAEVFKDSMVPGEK

[3] = target: Transient receptor potential cation channel subfamily V member 1 (Rattus norvegicus) (UniProt O35433); assay: Agonist activity at rat TRPV1 expressed in CHO cells assessed as maximal calcium uptake relative to capsaicin; format: functional, cell-based
[4] = target: T1, Transient receptor potential cation channel subfamily V member 1; assay: Agonist activity at rat TRPV1 expressed in CHO cells assessed as maximal calcium uptake; format: functional, cell-based
[5] = target: T1, Transient receptor potential cation channel subfamily V member 1; assay: as §1; format: functional, cell-based

T1 sequence (O35433 whole entry): as above

Row | Compound | Ki [1] | inhibition [2] | Activity [3] | Ki [5] | EC50 [4]
1 | COc1cc(CNC(=S)NCc2ccc(C(C)(C)C)cc2)ccc1O | 58.6 nM | – | – | – | 2.5 nM
2 | COc1cc(CNC(=S)NCc2ccc(C(C)(C)C)cc2)cc(Br)c1O | 51.6 nM | – | – | 49 nM | –
3 | COc1cc(CNC(=S)NCC(COC(=O)C(C)(C)C)Cc2ccc(C)c(C)c2)cc(Br)c1O (configuration not stated) | 33.1 nM | 70% | 29% | – | –
4 | COc1cc(CNC(=S)NC(CCc2ccc(C(C)(C)C)cc2)COC(=O)C(C)(C)C)c(I)cc1O (configuration not stated) | 79 nM | – | – | 69 nM | –
5 | COc1cc(CNC(=S)NCC(COC(=O)C(C)(C)C)Cc2ccc(C(C)(C)C)cc2)cc(Cl)c1O (configuration not stated) | 21.3 nM | 37% | 49% | – | –
6 | COc1cc(CNC(=S)NCC(COC(=O)C(C)(C)C)Cc2ccc(C)c(C)c2)cc(Cl)c1O (configuration not stated) | 30.9 nM | – | 93% | – | –
7 | COc1cc(CNC(=S)NC(CCc2ccc(C(C)(C)C)cc2)COC(=O)C(C)(C)C)ccc1O (configuration not stated) | 36.5 nM | – | – | – | 21.5 nM
8 | COc1cc(CNC(=S)NC(CCc2ccc(C(C)(C)C)cc2)COC(=O)C(C)(C)C)cc(I)c1O (configuration not stated) | 214 nM | – | – | 525 nM | –
9 | COc1cc(CNC(=S)NCC(COC(=O)C(C)(C)C)Cc2ccc(C(C)(C)C)cc2)c(Br)cc1O (configuration not stated) | 12.8 nM | – | – | 55 nM | –
10 | COc1cc(CNC(=S)NCc2ccc(C(C)(C)C)cc2)c(Br)cc1O | 42.1 nM | – | – | 30.3 nM | –
11 | COc1cc(CNC(=S)NCc2ccc(C(C)(C)C)cc2)c(Cl)cc1O | 36.9 nM | 81% | 33% | – | –
12 | COc1cc(CNC(=S)NC(CCc2ccc(C)c(C)c2)COC(=O)C(C)(C)C)ccc1O (configuration not stated) | 56 nM | – | – | – | 14.7 nM
13 | COc1cc(CNC(=S)NCC(COC(=O)C(C)(C)C)Cc2ccc(C)c(C)c2)c(Br)cc1O (configuration not stated) | 19.9 nM | 91% | 13% | – | –
14 | COc1cc(CNC(=S)NC(CCc2ccc(C)c(C)c2)COC(=O)C(C)(C)C)cc(Br)c1O (configuration not stated) | 102 nM | 59% | 50% | – | –
15 | COc1cc(CNC(=S)NC(COC(=O)C(C)(C)C)Cc2ccc(C(C)(C)C)cc2)c(I)cc1O (configuration not stated) | 96 nM | – | – | 310 nM | –
16 | CCCCCCCCC(=O)NCc1cc(OC)c(O)cc1I | 1320 nM | – | – | 127 nM | –
17 | COc1cc(CNC(=S)NCC(COC(=O)C(C)(C)C)Cc2ccc(C(C)(C)C)cc2)cc(I)c1O (configuration not stated) | 45 nM | – | – | 103 nM | –

Now from value to compound, other results behind:

Row | Ki [1] | inhibition [2] | Activity [3] | Ki [5] | Compound | EC50 [4]
18 | 38.2 nM | 29% | 57% | – | COc1cc(CNC(=S)NC(COC(=O)C(C)(C)C)Cc2ccc(C(C)(C)C)cc2)cc(Br)c1O (configuration not stated) | –
19 | 74.9 nM | 51% | 41% | – | COc1cc(CNC(=S)NC(COC(=O)C(C)(C)C)Cc2ccc(C(C)(C)C)cc2)c(Br)cc1O (configuration not stated) | –
20 | 86 nM | 16% | 88% | – | COc1cc(CNC(=S)NC(CCc2ccc(C)c(C)c2)COC(=O)C(C)(C)C)cc(Cl)c1O (configuration not stated) | –
21 | 127 nM | – | – | 115 nM | COc1cc(CNC(=S)NC(CCc2ccc(C)c(C)c2)COC(=O)C(C)(C)C)cc(I)c1O (configuration not stated) | –
22 | 109 nM | 75% | 13% | – | COc1cc(CNC(=S)NC(CCc2ccc(C)c(C)c2)COC(=O)C(C)(C)C)c(Br)cc1O (configuration not stated) | –
23 | 24.2 nM | 41% | 63% | – | COc1cc(CNC(=S)NCC(COC(=O)C(C)(C)C)Cc2ccc(C)c(C)c2)c(Cl)cc1O (configuration not stated) | –
24 | 143 nM | 73% | 19% | – | COc1cc(CNC(=S)NC(CCc2ccc(C(C)(C)C)cc2)COC(=O)C(C)(C)C)cc(Br)c1O (configuration not stated) | –
25 | 130 nM | – | – | 156 nM | COc1cc(CNC(=S)NCc2ccc(C(C)(C)C)cc2)c(I)cc1O | –
26 | 28.8 nM | – | – | – | COc1cc(CNC(=S)NC(COC(=O)C(C)(C)C)Cc2ccc(C(C)(C)C)cc2)cc(Cl)c1O (configuration not stated) | 60 nM
27 | 75 nM | – | – | 76.1 nM | COc1cc(CNC(=S)NC(CCc2ccc(C(C)(C)C)cc2)COC(=O)C(C)(C)C)c(Br)cc1O (configuration not stated) | –
28 | 18.8 nM | 85% | 9% | – | COc1cc(CNC(=S)NCC(COC(=O)C(C)(C)C)Cc2ccc(C(C)(C)C)cc2)cc(Br)c1O (configuration not stated) | –
29 | 122 nM | 47% | 44% | – | COc1cc(CNC(=S)NC(CCc2ccc(C(C)(C)C)cc2)COC(=O)C(C)(C)C)cc(Cl)c1O (configuration not stated) | –
30 | 12.2 nM | 71% | 24% | – | COc1cc(CNC(=S)NCC(COC(=O)C(C)(C)C)Cc2ccc(C(C)(C)C)cc2)c(Cl)cc1O (configuration not stated) | –
31 | 79 nM | – | – | 72.2 nM | COc1cc(CNC(=S)NC(CCc2ccc(C(C)(C)C)cc2)COC(=O)C(C)(C)C)c(Cl)cc1O (configuration not stated) | –
32 | 18.9 nM | – | – | 23.1 nM | COc1cc(CNC(=S)NCC(COC(=O)C(C)(C)C)Cc2ccc(C)c(C)c2)c(I)cc1O (configuration not stated) | –
33 | 41.5 nM | 11% | 94% | – | COc1cc(CNC(=S)NC(COC(=O)C(C)(C)C)Cc2ccc(C(C)(C)C)cc2)c(Cl)cc1O (configuration not stated) | –
34 | 103 nM | 45% | 60% | – | COc1cc(CNC(=S)NC(CCc2ccc(C)c(C)c2)COC(=O)C(C)(C)C)c(Cl)cc1O (configuration not stated) | –
35 | 13.3 nM | – | – | 71 nM | COc1cc(CNC(=S)NCC(COC(=O)C(C)(C)C)Cc2ccc(C(C)(C)C)cc2)c(I)cc1O (configuration not stated) | –
36 | 76 nM | 92% | 5% | – | COc1cc(CNC(=S)NCc2ccc(C(C)(C)C)cc2)cc(Cl)c1O | –
37 | 140 nM | – | – | 176 nM | COc1cc(CNC(=S)NC(CCc2ccc(C)c(C)c2)COC(=O)C(C)(C)C)c(I)cc1O (configuration not stated) | –
38 | 39.4 nM | – | – | 178 nM | COc1cc(CNC(=S)NC(COC(=O)C(C)(C)C)Cc2ccc(C(C)(C)C)cc2)cc(I)c1O (configuration not stated) | –
39 | 342 nM | – | – | 176 nM | COc1cc(CNC(=S)NCc2ccc(C(C)(C)C)cc2)cc(I)c1O | –
40 | 232 nM | – | – | 121 nM | COc1cc(CNC(=S)NCC(COC(=O)C(C)(C)C)Cc2ccc(C)c(C)c2)cc(I)c1O (configuration not stated) | –

Source: ChEMBL document CHEMBL1138378, “Halogenation of 4-hydroxy-3-methoxybenzyl thiourea TRPV1 agonists showed enhanced antagonism to capsaicin” (Bioorg Med Chem Lett, 2007)
